Results published in patent publication US6620828B2, “Thiazole compounds and pharmaceutical compositions for inhibiting protein kinases and methods for their use” (Agouron Pharmaceuticals, Inc., priority 1999, dated 2003).
Where “and” joins values, the source holds several entries; their conditions need not be identical. Equal values may be shown once. Read-outs that look alike come from different tables or passages of the source.

How the values were obtained:
FAKcd409 = biological target: T1, FAKcd409 (Homo sapiens, UniProt Q05397, P410T); assay: FAK HTS assay; type: biochemical; details: 10 uM compound, HTS Delphia assay
T1 construct: comprises residues methionine 409 to glutamate 689; made in house; host or cells: baculovirus vector expression system

[1] = biological target: T2, phosphorylated VEGF-R2Δ50 (FLVK-P) (Homo sapiens, UniProt P35968, DEL940-989/E990V); assay: VEGF-R2 coupled spectrophotometric (FLVK-P) assay; type: biochemical; details: for Ki: spectrophotometric assay
T2 construct: VEGF-R2Δ50 contains residues 806-939 and 990-1171; made in house; host or cells: baculovirus/insect cells
Outline: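 Baculovirus-expressed human VEGF-R2Δ50 (residues 806-939/990-1171, E990V) was autophosphorylated with 3 mM ATP, 40 mM MgCl2 for 2 h at 4° C. ADP formation was coupled via PK/LDH to NADH oxidation, read at 340 nm, with 5.1 mM poly(E4Y1), 1 mM ATP, 25 mM MgCl2, Hepes pH 7.5. Ki came from activity across compound concentrations.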

FGF-R1 = biological target: T3, FGF-R1 (Homo sapiens, UniProt P11362, C488A/C584S/L457V); assay: FGF-R spectrophotometric assay; type: biochemical; details: for FGF-R % inhibition @ 5: at 5 (head μM); for inhibition at 1 µM: Table 3, % inh @ 1 uM, read-out: FGF-P Ki (nM) (% inh @ 1 uM)
T3 construct: starting from the endogenous methionine residue 456 to glutamate 766; made in house; host or cells: baculovirus vector expression system
Outline: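 Kinase domain (Met456–Glu766, baculovirus-expressed) used at 50 nM in a spectrophotometric assay run as for VEGF-R2. Substrates were 2 mM ATP and 15 mM poly(E4Y1).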

CDK4/Cyclin D3 complex = biological target: T4, CDK4/Cyclin D3 complex (Homo sapiens, UniProt P11802); assay: CDK4/Cyclin D assay; type: biochemical; details: Table 2
T4 construct: made in house; host or cells: insect cells co-infected with baculovirus vectors
Outline: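 Insect-cell-expressed CDK4/cyclin D3 (50 nM) phosphorylating His-tagged Rb fragment (residues 386-928) with 25 μM [^32P]ATP in HEPES pH 7.4, MgCl2, 2% DMSO; 20 min at 30 °C, EDTA stop. Filter-captured 32P by phosphorimager; apparent Ki from competitive or tight-binding inhibition fits.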

CDK2/Cyclin A complex = CDK2/Cyclin A complex (Homo sapiens, UniProt P24941); assay: CDK2/Cyclin A assay; type: biochemical; details: Table 2
Outline: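 Radiometric assay: 150 nM CDK2/cyclin A (insect-cell CDK2, truncated cyclin A) phosphorylates His-tagged Rb fragment (residues 386-928) with 25 μM ATP plus [32P]ATP, pH 7.4 HEPES, 2% DMSO, 30 °C for 20 min. Filter-captured product counted by phosphorimager; apparent Ki from competitive or tight-binding inhibition fits.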

CHK1 = biological target: T5, CHK1 (Homo sapiens, UniProt O14757); assay: CHK1 high-throughput screening; type: biochemical; details: read-out: % inhibition @ 20 μM, Table 4, repeated entries per example
T5 sequence (O14757 1-476): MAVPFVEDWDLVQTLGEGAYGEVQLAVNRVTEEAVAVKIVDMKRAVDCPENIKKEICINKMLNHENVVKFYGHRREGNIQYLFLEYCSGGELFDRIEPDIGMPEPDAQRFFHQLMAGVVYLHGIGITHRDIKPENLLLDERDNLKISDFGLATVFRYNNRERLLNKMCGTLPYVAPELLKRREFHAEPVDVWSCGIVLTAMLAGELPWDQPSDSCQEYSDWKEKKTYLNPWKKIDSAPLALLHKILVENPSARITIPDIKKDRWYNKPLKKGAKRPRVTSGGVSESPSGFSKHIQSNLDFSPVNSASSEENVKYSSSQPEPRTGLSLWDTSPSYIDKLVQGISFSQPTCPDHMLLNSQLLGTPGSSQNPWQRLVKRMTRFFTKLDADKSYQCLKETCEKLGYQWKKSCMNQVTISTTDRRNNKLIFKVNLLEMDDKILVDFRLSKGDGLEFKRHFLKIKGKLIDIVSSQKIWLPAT

LCK tyrosine kinase [2] = biological target: T6, LCK tyrosine kinase (Homo sapiens, UniProt P06239, C224D/P223M); assay: LCK spectrophotometric assay; type: biochemical; details: for Ki: Table 3, first value of cells with two values
T6 construct: starting from amino acid residue 223 to the end of the protein at residue 509; made in house; host or cells: insect cells
Protocol: LCK Construct for Assay: The LCK tyrosine kinase was expressed in insect cells as an N-terminal deletion starting from amino acid residue 223 to the end of the protein at residue 509, with the following two amino acid substitutions at the N-terminus: […] and C224D.
The spectrophotometric assay was carried out as described above for VEGF-R2, except for the following changes in concentration: LCK=60 nM, MgCl2=0 mM, poly(E4Y1)=20 mM.

[3] = test system: lung cancer cells (line MV522); assay: Cancer cell proliferation (MV522) assay; type: cell-based
[4] = test system: human umbilical vein endothelial cells (HUVEC); assay: HUVEC proliferation assay; type: cell-based; details: Homo sapiens, HUVEC
Outline: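 Exponentially growing HUVEC were serum-starved 24 h (F12K + 1% FBS), pre-treated 1 h with compound (0.1% DMSO final), then stimulated with 6 ng/ml VEGF. Proliferation was read 72 h later by MTT reduction (A595). IC50 came from seven 0.5-log concentrations in triplicate; screens gave % inhibition relative to VEGF-only and starved wells.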

[5] = biological target: T7, unphosphorylated VEGF-R2Δ50 (FLVK) (Homo sapiens, UniProt P35968, DEL940-989/E990V); assay: VEGF-R2 coupled spectrophotometric assay, unphosphorylated enzyme (FLVK); type: biochemical
T7 construct: VEGF-R2Δ50 contains residues 806-939 and 990-1171; made in house; host or cells: baculovirus/insect cells
Outline: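 Unphosphorylated VEGF-R2Δ50 (5 to 40 nM) with 20 mM poly(E4Y1), 3 mM ATP, 60 mM MgCl2, 2 mM MnCl2 in 200 mM Hepes pH 7.5. ADP production coupled via PK/LDH to NADH oxidation, read at 340 nm. Ki from activity at varying compound concentrations.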

VEGF = assay: In vivo assay of retinal vascular development in neonatal rats; set-up: species or system rat; details: development model; intravitreal, 2 μl of 5 mg/ml initial drug concentration
Excerpt: In Vivo Assay of Retinal Vascular Development in Neonatal Rats
The development of the retinal vascular in rats occurs from postnatal day 1 to postnatal day 14 (P1-P14). This process is dependent on the activity of VEGF (J. Stone, et al, J. Neurosci., 15, 4738 (1995)). […] To assess the ability of specific compounds to inhibit the activity of VEGF in vivo, compounds were formulated in an appropriate vehicle, usually 50% polyethylene glycol, average molecular weight 400 daltons, and 50% solution of 300 mM sucrose in deionized water. Typically, two microliters (2 μl) of the drug solution was injected into the midvitreous of the eye of rat pups on postnatal day 8 or 9. Six days after the intravitreal injection, the animals were sacrificed and the retinas dissected free from the remaining ocular tissue. […] The individual retinas are then flat-mount onto glass slides and examined to determine the extent of vascularization. […] The amount of vessel regression was used to assess the relative potency of the compounds after in vivo administration. Vessel regression is graded on subjective scale of one to three pluses, with one plus being detectable regression judged to be approximately 25 percent or less, two pluses being judged to be approximately 25-75% regression and three pluses give to retinas with near total regression (approximately 75% or greater).

LCK tyrosine kinase [6] = biological target: T6, LCK tyrosine kinase; assay: LCK spectrophotometric assay; type: biochemical; details: Table 3, read-out: LCK (% inh @ 1 uM)
[7] = test system: VEGF dependent retinal neovascularization; assay: In vivo assay in neonatal rat model of retinopathy of prematurity; details: intravitreal injection
Protocol: In Vivo Assay of Retinal Vascular Development in Neonatal Rat Model of Retinopathy of Prematurity
A second model of VEGF dependent retinal neovascularization was employed to evaluate the activities of this series of compounds. In this model (Penn et. al, Invest. Ophthalmol. Vis. Sci., 36, 2063, (1995)), rats pups (n=16) with their mother are placed in a computer controlled chamber that regulates the concentration of oxygen. The animals are exposed for 24 hours to a concentration of 50% oxygen followed by 24 hours at a concentration of 10% oxygen. This alternating cycle of hyperoxia followed by hypoxia is repeated 7 times after which the animals are removed to room air (P14). Compounds are administered via intravitreal injection upon removal to room air and the animals are sacrificed 6 days later (P20). The isolated retinas are then isolated, stained mounted and analyzed as detail above in the development model. The effectiveness was also graded as is described for the development model.

[8] = Table 3, some entries 'Slow binder'

T1 sequence (Q05397 409-689 P410T): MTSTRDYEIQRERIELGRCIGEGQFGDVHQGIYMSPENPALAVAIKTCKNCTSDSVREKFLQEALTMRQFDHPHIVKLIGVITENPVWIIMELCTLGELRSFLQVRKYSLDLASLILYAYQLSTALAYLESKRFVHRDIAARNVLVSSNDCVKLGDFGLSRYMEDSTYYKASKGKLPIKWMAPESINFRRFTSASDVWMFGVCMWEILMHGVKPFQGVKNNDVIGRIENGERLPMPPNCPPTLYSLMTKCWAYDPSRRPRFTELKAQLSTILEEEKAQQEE
T6 sequence (P06239 223-509 P223M/C224D): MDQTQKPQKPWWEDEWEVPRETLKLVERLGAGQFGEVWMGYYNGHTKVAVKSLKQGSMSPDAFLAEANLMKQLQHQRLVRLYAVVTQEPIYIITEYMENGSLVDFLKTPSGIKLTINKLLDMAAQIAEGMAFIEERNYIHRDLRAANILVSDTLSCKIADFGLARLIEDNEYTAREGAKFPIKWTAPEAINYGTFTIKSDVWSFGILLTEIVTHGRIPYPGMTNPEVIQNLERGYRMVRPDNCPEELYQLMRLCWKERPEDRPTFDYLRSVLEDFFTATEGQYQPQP
T3 sequence (P11362 456-766 L457V/C488A/C584S): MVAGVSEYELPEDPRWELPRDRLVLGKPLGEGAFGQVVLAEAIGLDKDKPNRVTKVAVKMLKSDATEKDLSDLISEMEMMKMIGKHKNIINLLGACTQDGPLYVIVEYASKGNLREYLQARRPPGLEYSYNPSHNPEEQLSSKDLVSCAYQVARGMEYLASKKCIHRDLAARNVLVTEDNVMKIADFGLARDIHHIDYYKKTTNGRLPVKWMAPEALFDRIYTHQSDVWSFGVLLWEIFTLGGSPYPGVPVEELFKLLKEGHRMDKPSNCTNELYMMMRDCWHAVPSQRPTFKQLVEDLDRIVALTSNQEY
T2 sequence (P35968 with tags, fused parts or gaps DEL940-989/E990V limits assumed): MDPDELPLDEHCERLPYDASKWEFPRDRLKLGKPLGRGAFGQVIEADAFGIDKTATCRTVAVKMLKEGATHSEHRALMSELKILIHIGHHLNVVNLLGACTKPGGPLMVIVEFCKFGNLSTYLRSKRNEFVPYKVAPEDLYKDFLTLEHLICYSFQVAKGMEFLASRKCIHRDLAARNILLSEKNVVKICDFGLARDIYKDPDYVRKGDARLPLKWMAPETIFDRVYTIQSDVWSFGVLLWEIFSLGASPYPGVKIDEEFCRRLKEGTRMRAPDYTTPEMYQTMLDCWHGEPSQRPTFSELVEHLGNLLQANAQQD
T7 sequence (P35968 with tags, fused parts or gaps DEL940-989/E990V limits assumed): as above
T4 sequence (P11802 whole entry): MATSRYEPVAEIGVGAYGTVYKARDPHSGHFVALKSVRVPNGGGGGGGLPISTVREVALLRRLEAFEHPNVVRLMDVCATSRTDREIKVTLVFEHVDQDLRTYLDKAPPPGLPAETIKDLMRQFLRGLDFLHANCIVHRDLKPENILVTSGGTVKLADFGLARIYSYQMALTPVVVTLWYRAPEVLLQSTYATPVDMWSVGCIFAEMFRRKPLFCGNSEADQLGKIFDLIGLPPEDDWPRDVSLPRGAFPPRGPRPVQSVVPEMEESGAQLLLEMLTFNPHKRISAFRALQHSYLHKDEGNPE
T4 sequence (P30281 whole entry partner): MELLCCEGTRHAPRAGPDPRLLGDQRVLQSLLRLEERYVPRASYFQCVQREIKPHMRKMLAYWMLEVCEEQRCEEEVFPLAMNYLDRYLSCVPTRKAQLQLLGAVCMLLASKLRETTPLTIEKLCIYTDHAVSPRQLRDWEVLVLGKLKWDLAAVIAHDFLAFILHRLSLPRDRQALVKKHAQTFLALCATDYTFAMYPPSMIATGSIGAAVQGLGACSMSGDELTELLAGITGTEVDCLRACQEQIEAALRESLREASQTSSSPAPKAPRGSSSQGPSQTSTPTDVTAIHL

SMILES	Ki ([1]; Table 2) [nM]	melting point	FGF-R % inhibition @ 5 (FGF-R1; Table 2) [% @]	Ki [5, 8] [nM]	inhibition at 1 µM (LCK tyrosine kinase [6]) [%]	Ki (LCK tyrosine kinase [2]) [nM]	inhibition at 1 µM (FGF-R1) [%]	IC50 ([4]; Table 3) [nM]	other results
COc1cc(Nc2nc(N)c(-c3nc(-c4ccc(O)c(O)c4)cs3)s2)cc(OC)c1OC [A(12), 4-[4′-Amino-2′-(3,4,5-trimethoxy-phenylamino)-[2,5′]bithiazolyl-4-yl]-benzene-1,2-diol]	34	132 to 137 °C (dec.)	–	–	–	–	–	–	% inhibition of FAK (FAKcd409): −16%; Ki (FGF-R1; Table 2): 190000 nM; Ki (CDK4/Cyclin D3 complex): 2700 nM; Ki (CDK2/Cyclin A complex): 6700 nM
COc1cc(Nc2nc(N)c(-c3nc(-c4cc(O)cc(O)c4)cs3)s2)cc(OC)c1OC [A(18), 5-[4′-Amino-2′-(3,4,5-trimethoxy-phenylamino)-[2,5′]bithiazolyl-4-yl]-benzene-1,3-diol]	–	198 to 202 °C	38	–	–	–	–	–	inhibition at 10 µM (FAKcd409): 25%; % inhibition of FAK (FAKcd409; 10 µM): 32% and 29%; inhibition at 20 µM (CHK1): 60.8%
COc1cc(Nc2nc(N)c(-c3nc(-c4ccccc4O)cs3)s2)cc(OC)c1OC [A(23), 2-[4′-Amino-2′-(3,4,5-trimethoxy-phenylamino)-[2,5′]bithiazolyl-4-yl]-phenol]	39	186 to 190 °C (dec.)	47	–	–	–	–	–	% inhibition of FAK (FAKcd409; 10 µM): −5% and −6% and 4%; LCK % inhibition @ 5 (LCK tyrosine kinase [2]; Table 2, at 5 (head μM)): 34% @
COc1cc(Nc2nc(N)c(-c3nc(-c4cc(O)ccc4Br)cs3)s2)cc(OC)c1OC [A(26), 3-[4′-Amino-2′-(3,4,5-trimethoxy-phenylamino)-[2,5′]bithiazolyl-4-yl]-4-bromophenol]	14	214 to 216 °C	52	–	–	–	–	–	IC50 ([3]; MV522, Table 2): 7500 nM; % inhibition of FAK (FAKcd409): 72%; inhibition at 20 µM (CHK1): 42.5%; IC50 ([4]; Table 2): > 1000 nM
CCn1nc(C)cc1C(=O)Nc1ccc(C)c(-c2noc(-c3sc(Nc4ccc(CO)cc4)nc3N)n2)c1 [B(30)]	–	–	–	0.085	–	–	–	–	Vessel regression grade (VEGF): ++ (two pluses being judged to be approximately 25-75% regression)
COc1cc(Nc2nc(N)c(-c3nc(-c4cc(NC(=O)c5cccc(Cl)c5)ccc4Cl)no3)s2)cc(OC)c1OC [D(64)]	–	–	–	1.4	94	3.2	84	10 to 100	IC50 ([3]; MV522, Table 3): 2000 nM
CC(=O)Nc1nc(N)c(-c2nc(-c3cccc(NC(=O)c4ccccc4)c3)cs2)s1 [F(9), N-[3-(2′-Acetylamino-4′-amino-[2,5′]bithiazolyl-4-yl)-phenyl]benzamide]	–	–	–	–	–	–	–	–	IC50 ([3]; MV522, Table 1): > 10000 nM; Ki ([5]; Table 1): 9.6 nM; inhibition at 1 µM (LCK tyrosine kinase [2]; Table 1, 1 μM): 12%; Ki ([1]; Table 1): 7.8 nM; IC50 ([4]; Table 1): 21 nM

Further lines, with some results ahead:

Ki ([1]; Table 2) [nM]	melting point	FGF-R % inhibition @ 5 (FGF-R1; Table 2) [% @]	Ki [5, 8] [nM]	inhibition at 1 µM (LCK tyrosine kinase [6]) [%]	Ki (LCK tyrosine kinase [2]) [nM]	inhibition at 1 µM (FGF-R1) [%]	SMILES	IC50 ([4]; Table 3) [nM]	other results
–	–	–	1	91	9.3	37	COc1cccc(C(=O)Nc2ccc(Cl)c(-c3noc(-c4sc(Nc5cc(OC)c(OC)c(OC)c5)nc4N)n3)c2)c1 [D(65), N-(3-{5-[4-Amino-2-(3,4,5-trimethoxy-phenylamino)-thiazol-5-yl]-[1,2,4]oxadiazyl}-4-chloro-phenyl)-3-methoxy-benzamide]	4.3	IC50 ([3]; MV522, Table 3): 2100 nM
–	–	–	–	92	–	61	COc1cccc(C(=O)Nc2ccc(C)c(-c3noc(-c4sc(Nc5cc(OC)c(OC)c(OC)c5)nc4N)n3)c2)c1 [D(74), 3-[3-[(3-methoxybenzoyl)amino]-6-methyl-phenyl]-5-[2-[(3,4,5-trimethoxyphenyl)amino]-4-amino-5-thiazolyl]-1,2,4-oxadiazole]	5.2	Vessel regression grade [7]: ++ (two pluses being judged to be approximately 25-75% regression); inhibition at 0.05 µM ([1]; Table 3, at 50 nM): 91%
–	–	–	–	97	1.1	64	COc1cc(Nc2nc(N)c(-c3nc(-c4cc(NC(=O)c5cccc(Cl)c5)ccc4C)no3)s2)cc(OC)c1OC [D(75), 3-[3-[(3-chlorobenzoyl)amino]-6-methyl-phenyl]-5-[2-[(3,4,5-trimethoxyphenyl)amino]-4-amino-5-thiazolyl]-1,2,4-oxadiazole]	7.8	–
